# Marks after values point to notes of the source that are not given here.
# Legend:
# finishing steers [1] = test: Secondary (carcass) variables after Zilmax component or continuous feeding; type: in vivo, cattle; settings: for Marbling Score: 400-699 = choice
# Description: A multi-center, randomized complete block design was used. Four study sites enrolled 800 to 1000 head of cattle each. Cattle were randomized to 10 blocks of 80 to 100 head based on body weight, then penned in groups of 16 to 20 head per pen. Finishing steers that were visually estimated to be approximately 58 days from finish were used in the studies. Each site enrolled 800 to 1000 head of cattle. Cattle were randomized to 10 blocks of 80 to 100 head and, within block, to treatment group based on body weight. Study pens consisted of 16 to 20 head per pen. A component feeding method was tested in the studies by thoroughly mixing the daily zilpaterol dose in the first feeding of the Type C feed prior to delivery to the animal for Groups 2, 3 and 4. […] The daily component feed amount (i.e., the first feeding each day of the Type C feed) was set at approximately 10 lb of feed dry matter (DM) per head to simulate commercial practice for component feeding. Therefore, all study pens were fed approximately 10 lb of DM per head in the first feeding of the day. Control steers were fed the Type C feed that contained no Zilmax. The component feeding treatment groups were fed the Type C feed that contained 60, 75, or 90 mg/head/day. All cattle in the control and three component feeding treatments were fed the non-medicated Type C complete feed (i.e., without Zilmax®) in a second feeding each day. Steers in the 6.8 g/ton Zilmax® treatment group received the Type C complete feed containing this level of Zilmax® in both feedings each day during the 20-day Zilmax® feeding period. DMI was calculated for the two study periods (start of the acclimation period or Day 0 to the end of the withdrawal period). The following carcass data were collected or calculated: marbling score, USDA quality grade or equivalent, hot carcass weight, ribeye area, backfat thickness (preliminary yield grade and adjusted preliminary yield grade), and USDA yield grade or equivalent. Dressing percent was calculated. Variables continuous in nature were subjected to the analysis described for the primary outcome variables. Outcomes evaluated included: initial body weight, final body weight, weight gain (Day 0 to final date), ADG (acclimation period, initial date to final date), ADG (shrunk, Day 0 to final date and initial date to final date), DMI (acclimation, initial date to final date), as fed intake (Zilmax® period), carcass gain (Day 0 to final date), dressing percent, hot carcass weight, marbling score, fat depth, ribeye area, percent KPH and calculated yield grade. The following carcass data were collected or calculated: marbling score, USDA quality grade or equivalent, hot carcass weight, ribeye area, backfat thickness, calculated yield grade, kidney-pelvic-heart fat percentage, and USDA yield grade or equivalent. The Canadian study site CBGA quality and yield grades were converted to USDA equivalents prior to analysis. Dressing percent was calculated.
# finishing steers [2] = test: Feedlot growth performance study: component feeding vs continuous feeding of Zilmax; type: in vivo, cattle; settings: for Final body weight: 20 days, LS mean
# Description: A multi-center, randomized complete block design was used. Four study sites enrolled 800 to 1000 head of cattle each. Cattle were randomized to 10 blocks of 80 to 100 head based on body weight, then penned in groups of 16 to 20 head per pen. Finishing steers that were visually estimated to be approximately 58 days from finish were used in the studies. Each site enrolled 800 to 1000 head of cattle. Cattle were randomized to 10 blocks of 80 to 100 head and, within block, to treatment group based on body weight. Study pens consisted of 16 to 20 head per pen. The study was broken into three periods: acclimation, Zilmax® treatment and withdrawal. Between study sites, the number of acclimation days was variable but the Zilmax feeding period was 20 days at all study sites. The withdrawal period ranged from 3 to 5 days across the sites. More than one start time was allowed to accommodate enrollment of the study animals. If blocks were initiated at different times, blocks may have been acclimated for different lengths of time. The minimum length of the acclimation period was 31 days. All animals were permitted ad libitum feed consumption according to standard study site procedure. Feed delivery occurred twice daily. Daily feed issue was recorded on a per pen basis from the start of the acclimation period and until final weights were measured before shipment for harvest. Feed batching and delivery were documented. A component feeding method was tested in the studies by thoroughly mixing the daily zilpaterol dose in the first feeding of the Type C feed prior to delivery to the animal for Groups 2, 3 and 4. […] The daily component feed amount (i.e., the first feeding each day of the Type C feed) was set at approximately 10 lb of feed dry matter (DM) per head to simulate commercial practice for component feeding. Therefore, all study pens were fed approximately 10 lb of DM per head in the first feeding of the day. Control steers were fed the Type C feed that contained no Zilmax. The component feeding treatment groups were fed the Type C feed that contained 60, 75, or 90 mg/head/day. All cattle in the control and three component feeding treatments were fed the non-medicated Type C complete feed (i.e., without Zilmax®) in a second feeding each day. Steers in the 6.8 g/ton Zilmax® treatment group received the Type C complete feed containing this level of Zilmax® in both feedings each day during the 20-day Zilmax® feeding period. Individual animal weights were measured prior to the start of the Acclimation period for use in randomization of animals to treatment groups and pens. The Acclimation period was used to stabilize feed intake and behavioral aspects of the newly sorted pen groups of cattle prior to feeding Zilmax®. Individual weights were measured and unconsumed feed was removed from the feed bunks and weighed on the day of initiation of Zilmax® feeding. After a 20-day Zilmax® feeding period, unconsumed feed was removed from the feed bunks, weighed, and discarded. All animals in the five treatment groups were fed a non-medicated feed (i.e., without Zilmax®) for a minimum 3 day withdrawal period prior to harvest. Unconsumed feed remaining in the feed bunks was removed and weighed on the day of final body weight measurement. Cattle were handled throughout the study using procedures which were typical of commercial practices. Cattle were exposed to ambient weather conditions during the studies. Feed was not restricted prior to weighing or harvest. The primary variables in this study were average daily body weight gain (ADG) and feed efficiency (FE) calculated for the Zilmax® feeding period of the study (Day 0 through end of withdrawal period) and for the entire study (start of the acclimation period to end of withdrawal period). ADG was calculated as a pen average from the ADG of individual animals within the pen using the equation: ADG=(final body weight−Day 0 body weight)/(number of days between the body weight measurements). […]
# [3] = Acclimation to End of Withdrawal (entire study)
# [4] = Entire Study (55 to 82 days), component feeding 60 mg/hd/day
# [5] = Entire Study (55 to 82 days), component feeding 75 mg/hd/day
# [6] = Entire Study (55 to 82 days), component feeding 90 mg/hd/day
# [7] = Entire Study (55 to 82 days), continuous 6.8 g/ton
# [8] = Zilmax and Withdrawal Period, all treated groups
# [9] = Zilmax and Withdrawal Periods (23 to 25 days), component feeding 60 mg/hd/day
# [10] = Zilmax and Withdrawal Periods (23 to 25 days), component feeding 75 mg/hd/day
# [11] = Zilmax and Withdrawal Periods (23 to 25 days), component feeding 90 mg/hd/day
# [12] = Zilmax and Withdrawal Periods (23 to 25 days), continuous 6.8 g/ton
smiles,measurement,setting,value
"CC(C)NC1CCn2c(=O)[nH]c3cccc(c32)C1O (centres unmarked) [Zilmax, 4,5,6,7-tetrahydro-7-hydroxy-6-(isopropylamino) imidazo[4,5,1-jk]-[1]benzazepin-2(1H)-one]","Backfat thickness, among the treatment groups",finishing steers [1]; P>0.19,no significant differences
same,"Kidney-pelvic-heart fat percentage, among the treatment groups",finishing steers [1]; P>0.19,no significant differences
same,"USDA quality grade, among the treatment groups",finishing steers [1]; P>0.19,no significant differences
same,"Calculated yield grade, Zilmax treated groups compared to the control group",finishing steers [1]; all treated groups,significantly lower
same,"Dressing percentage, Zilmax treated groups compared to the control group",finishing steers [1]; all treated groups,significantly higher
same,"Hot carcass weight, Zilmax treated groups compared to the control group",finishing steers [1]; all treated groups,significantly higher
same,"Marbling score, Zilmax treated groups compared to the control group",finishing steers [1]; all treated groups,significantly lower
same,"Rib eye area, Zilmax treated groups compared to the control group",finishing steers [1]; all treated groups,significantly higher
same,"USDA yield grade score, Zilmax treated groups compared to the control group",finishing steers [1]; all treated groups,significantly lower
same,"Calculated yield grade, component feeding groups vs continuous feeding group","finishing steers [1]; bovine, in vivo",no differences
same,"Dressing percentage, component feeding groups vs continuous feeding group","finishing steers [1]; bovine, in vivo",no differences
same,"Hot carcass weight, component feeding groups vs continuous feeding group","finishing steers [1]; bovine, in vivo",no differences
same,"Marbling score, component feeding groups vs continuous feeding group","finishing steers [1]; bovine, in vivo",no differences
same,"Rib eye area, component feeding groups vs continuous feeding group","finishing steers [1]; bovine, in vivo",no differences
same,"USDA yield grade score, component feeding groups vs continuous feeding group","finishing steers [1]; bovine, in vivo",no differences
same,Backfat Thickness,finishing steers [1]; component feeding 60 mg/hd/day,0.49 inches
same,Calculated Yield Grade,finishing steers [1]; component feeding 60 mg/hd/day,2.81*
same,Dressing % (using final body weight shrunk 4%),finishing steers [1]; component feeding 60 mg/hd/day,63.89* %
same,Hot Carcass Weight,finishing steers [1]; component feeding 60 mg/hd/day,904* lb/head
same,Kidney-Pelvic-Heart fat,finishing steers [1]; component feeding 60 mg/hd/day,2.27%
same,Ribeye Area,finishing steers [1]; component feeding 60 mg/hd/day,15.14* sq. inches
same,USDA Yield Grade,finishing steers [1]; component feeding 60 mg/hd/day,2.19*
same,Marbling Score,finishing steers [1]; component feeding 60 mg/hd/day,453*
same,Backfat Thickness,finishing steers [1]; component feeding 75 mg/hd/day,0.48 inches
same,Calculated Yield Grade,finishing steers [1]; component feeding 75 mg/hd/day,2.82*
same,Dressing % (using final body weight shrunk 4%),finishing steers [1]; component feeding 75 mg/hd/day,64.00* %
same,Hot Carcass Weight,finishing steers [1]; component feeding 75 mg/hd/day,902* lb/head
same,Kidney-Pelvic-Heart fat,finishing steers [1]; component feeding 75 mg/hd/day,2.26%
same,Ribeye Area,finishing steers [1]; component feeding 75 mg/hd/day,15.07* sq. inches
same,USDA Yield Grade,finishing steers [1]; component feeding 75 mg/hd/day,2.19*
same,Marbling Score,finishing steers [1]; component feeding 75 mg/hd/day,460*
same,Backfat Thickness,finishing steers [1]; component feeding 90 mg/hd/day,0.49 inches
same,Calculated Yield Grade,finishing steers [1]; component feeding 90 mg/hd/day,2.79*
same,Dressing % (using final body weight shrunk 4%),finishing steers [1]; component feeding 90 mg/hd/day,64.06* %
same,Hot Carcass Weight,finishing steers [1]; component feeding 90 mg/hd/day,905* lb/head
same,Kidney-Pelvic-Heart fat,finishing steers [1]; component feeding 90 mg/hd/day,2.26%
same,Ribeye Area,finishing steers [1]; component feeding 90 mg/hd/day,15.20* sq. inches
same,USDA Yield Grade,finishing steers [1]; component feeding 90 mg/hd/day,2.18*
same,Marbling Score,finishing steers [1]; component feeding 90 mg/hd/day,456*
same,Backfat Thickness,finishing steers [1]; continuous 6.8 g/ton,0.49 inches
same,Calculated Yield Grade,finishing steers [1]; continuous 6.8 g/ton,2.83*
same,Dressing % (using final body weight shrunk 4%),finishing steers [1]; continuous 6.8 g/ton,64.08* %
same,Hot Carcass Weight,finishing steers [1]; continuous 6.8 g/ton,908* lb/head
same,Kidney-Pelvic-Heart fat,finishing steers [1]; continuous 6.8 g/ton,2.27%
same,Ribeye Area,finishing steers [1]; continuous 6.8 g/ton,15.14* sq. inches
same,USDA Yield Grade,finishing steers [1]; continuous 6.8 g/ton,2.19*
same,Marbling Score,finishing steers [1]; continuous 6.8 g/ton,457*
same,"ADG, component feeding groups vs continuous feeding group",finishing steers [2]; [3],No differences
same,"ADG, treated groups compared to the control group",finishing steers [2]; [3],significantly higher
same,"FE, component feeding groups vs continuous feeding group",finishing steers [2]; [3],No differences
same,"FE, treated groups compared to the control group",finishing steers [2]; [3],significantly lower
same,"DMI, among the treatment groups","finishing steers [2]; Acclimation to End of Withdrawal (entire study), P>0.51",No differences
same,ADG,finishing steers [2]; [4],4.14* lb/head/day
same,DMI,finishing steers [2]; [4],22.71 lb/head/day
same,FE (Feed / Gain),finishing steers [2]; [4],5.64*
same,ADG,finishing steers [2]; [5],4.12* lb/head/day
same,DMI,finishing steers [2]; [5],22.75 lb/head/day
same,FE (Feed / Gain),finishing steers [2]; [5],5.65*
same,ADG,finishing steers [2]; [6],4.13* lb/head/day
same,DMI,finishing steers [2]; [6],22.65 lb/head/day
same,FE (Feed / Gain),finishing steers [2]; [6],5.62*
same,ADG,finishing steers [2]; [7],4.19* lb/head/day
same,DMI,finishing steers [2]; [7],22.93 lb/head/day
same,FE (Feed / Gain),finishing steers [2]; [7],5.64*
same,"ADG, component feeding groups vs continuous feeding group",finishing steers [2]; Zilmax and Withdrawal Period,No differences
same,"DMI, component feeding groups compared to the control group",finishing steers [2]; Zilmax and Withdrawal Period,significantly lower
same,"DMI, continuous feeding group vs control group",finishing steers [2]; Zilmax and Withdrawal Period,no significant difference
same,"FE, component feeding groups vs continuous feeding group",finishing steers [2]; Zilmax and Withdrawal Period,No differences
same,"ADG, treated groups compared to the control group",finishing steers [2]; [8],significantly higher
same,"FE, treated groups compared to the control group",finishing steers [2]; [8],significantly lower
same,ADG,finishing steers [2]; [9],4.13*^(c) lb/head/day
same,DMI,finishing steers [2]; [9],22.57* lb/head/day
same,FE (Feed / Gain),finishing steers [2]; [9],5.89*
same,ADG,finishing steers [2]; [10],3.99* lb/head/day
same,DMI,finishing steers [2]; [10],22.70* lb/head/day
same,FE (Feed / Gain),finishing steers [2]; [10],5.99*
same,ADG,finishing steers [2]; [11],3.97* lb/head/day
same,DMI,finishing steers [2]; [11],22.39* lb/head/day
same,FE (Feed / Gain),finishing steers [2]; [11],6.10*
same,ADG,finishing steers [2]; [12],4.23* lb/head/day
same,DMI,finishing steers [2]; [12],22.87 lb/head/day
same,FE (Feed / Gain),finishing steers [2]; [12],5.96*
same,Final body weight,finishing steers [2]; component feeding 60 mg/hd/day,1463 lb/head
same,Final body weight,finishing steers [2]; component feeding 75 mg/hd/day,1459 lb/head
same,Final body weight,finishing steers [2]; component feeding 90 mg/hd/day,1461 lb/head
same,Final body weight,finishing steers [2]; fed continuously 6.8 g/ton (90% DMB),1467 lb/head
